Values joined by “and” are separate entries in the source; they are usually repeats but may differ in a detail not shown here. Equal values may be shown once. Where a name gives a salt, the structure may show the parent alone. Read-outs that look alike come from different tables or passages of the source.

In one assay the target is T1, human 5HT1F receptor (Homo sapiens, UniProt P30939).
T1 sequence (P30939 1-366): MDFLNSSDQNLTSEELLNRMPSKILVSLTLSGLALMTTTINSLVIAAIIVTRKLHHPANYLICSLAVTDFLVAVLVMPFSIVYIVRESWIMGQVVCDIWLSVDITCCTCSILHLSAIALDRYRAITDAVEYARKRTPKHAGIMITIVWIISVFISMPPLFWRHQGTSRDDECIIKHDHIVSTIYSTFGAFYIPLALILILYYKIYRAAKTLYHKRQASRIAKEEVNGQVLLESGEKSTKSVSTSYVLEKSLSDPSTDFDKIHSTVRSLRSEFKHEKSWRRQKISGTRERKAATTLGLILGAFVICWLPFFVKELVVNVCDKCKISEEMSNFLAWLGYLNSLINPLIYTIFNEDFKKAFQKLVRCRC
The assay is described as follows: Binding to human 5HT1F receptor, [3H]serotonin.

The next assay has as its target human 5HT1E receptor (Homo sapiens, UniProt P28566). The assay is described as follows: Binding to human 5HT1E receptor, [3H]serotonin.
In another assay the target is human 5HT1Dβ receptor (Homo sapiens, UniProt P28222). The assay is described as follows: Binding to human 5HT1Dβ receptor, [3H]serotonin. The conditions noted are these: cloned human receptor; read-out: Receptor (pKi) 5HT1Dβ (converted).
Chain of human 5HT1Dβ receptor (P28222 whole entry): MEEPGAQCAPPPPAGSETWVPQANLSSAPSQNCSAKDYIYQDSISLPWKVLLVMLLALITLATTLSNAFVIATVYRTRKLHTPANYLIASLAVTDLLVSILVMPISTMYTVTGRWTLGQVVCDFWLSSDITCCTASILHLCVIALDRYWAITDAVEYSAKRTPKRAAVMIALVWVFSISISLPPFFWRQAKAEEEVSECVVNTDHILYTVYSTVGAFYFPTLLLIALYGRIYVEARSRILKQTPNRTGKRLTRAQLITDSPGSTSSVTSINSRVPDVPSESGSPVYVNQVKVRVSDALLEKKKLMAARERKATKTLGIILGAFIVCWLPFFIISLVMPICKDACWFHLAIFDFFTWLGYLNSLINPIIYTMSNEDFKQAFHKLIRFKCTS
For assay [1], the system named is food intake of 24 h food-deprived rats. As to the kind of experiment: Food intake in food-deprived rats. The class given is in vivo, rat. The conditions noted are these: 30 mg/kg i.p. after 24 h food deprivation, percentage of intake compared to control rats.
Method: At the end of the equilibration period, food is removed from the animals for 24 hours starting at 8:00 a.m. At the end of the fasting period compound or vehicle may be administered to the animals orally or by injection intraperitoneally or intravenously. After 10-60 min. food is returned to the animals and their food intake is monitored at various time periods during the following 24 hour period. The food intake of animals treated with test compound may be calculated as a percentage of the food intake of control animals (i.e., animals treated with vehicle). Alternatively, food intake for each group of animals subjected to a particular experimental condition may be expressed as the mean±S.E.M.
Therefore, the Y5 antagonists of Table 14 were administered by intraperitoneal injection at a dose of 30 mg/kg to conscious rats following a 24 h food deprivation. […] Measurements were performed two hours after administration of the test compound.
The test system of assay [2] is NPY-induced feeding behavior in satiated rats. As to the kind of experiment: NPY-induced food intake in satiated rats. The conditions noted are these: for Food intake (g) mean ± S.E.M., NPY + compound: compound 10 mg/kg i.p., then 300 pmole NPY i.c.v., 4 hours after NPY. The class given is in vivo, rat.
Method: The rats are individually housed in stainless steel cages and maintained on an 11:13 h light-dark cycle (lights off at 18:00 h) at a controlled temperature of 21-23° C. at all times. Water and food (NAFAG lab chow pellets NAFAG, Gossau, Switzerland) are available ad libidum.
The guide cannula is placed on the dura. Injection cannulas extend the guide cannulas −3.8 mm ventrally to the skull surface. Animals are allowed at least 4 days of recovery postoperatively before being used in the experiments. Cannula placement is checked postoperatively by testing all rats for their drinking response to a 50 ng intracerebroventricular (i.c.v.) injection of angiotensin II. Only rats which drink at least 2.5 ml of water within 30 min. after angiotensin II injection are used in the feeding studies.
All injections are made in the morning 2 hours after light onset. Peptides are injected in artificial cerebrospinal fluid (ACSF) in a volume of 5 μl.
Pellets are then removed from the cage subsequently at each selected time point and replaced with a new set of preweighed pellets. The food intake of animals treated with test compound may be calculated as a percentage of the food intake of control animals i.e., animals treated with vehicle. Alternatively, food intake for each group of animals subjected to a particular experimental condition may be expressed as the mean±S.E.M. Statistical analysis is performed by analysis of variance using the Student-Newman-Keuls test.
Food intake is reported as the mean±S.E.M. intake for a group of animals.
For a further assay, the target named is human 5HT1Dα receptor (Homo sapiens, UniProt P28221). The assay is described as follows: Binding to human 5HT1Dα receptor, [3H]serotonin.
Chain of human 5HT1Dα receptor (P28221 whole entry): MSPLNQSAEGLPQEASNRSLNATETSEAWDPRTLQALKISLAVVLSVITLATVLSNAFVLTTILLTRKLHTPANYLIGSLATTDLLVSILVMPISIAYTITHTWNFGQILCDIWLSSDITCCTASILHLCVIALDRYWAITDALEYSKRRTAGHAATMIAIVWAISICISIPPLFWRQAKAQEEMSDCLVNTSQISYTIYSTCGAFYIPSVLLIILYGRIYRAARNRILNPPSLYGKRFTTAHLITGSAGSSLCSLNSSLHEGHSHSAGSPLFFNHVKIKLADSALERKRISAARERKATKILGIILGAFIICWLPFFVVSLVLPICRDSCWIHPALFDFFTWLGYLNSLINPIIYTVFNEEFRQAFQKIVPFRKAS
Another assay addresses T2, human α2C receptor (Homo sapiens, UniProt P18825).
T2 sequence (P18825 1-462): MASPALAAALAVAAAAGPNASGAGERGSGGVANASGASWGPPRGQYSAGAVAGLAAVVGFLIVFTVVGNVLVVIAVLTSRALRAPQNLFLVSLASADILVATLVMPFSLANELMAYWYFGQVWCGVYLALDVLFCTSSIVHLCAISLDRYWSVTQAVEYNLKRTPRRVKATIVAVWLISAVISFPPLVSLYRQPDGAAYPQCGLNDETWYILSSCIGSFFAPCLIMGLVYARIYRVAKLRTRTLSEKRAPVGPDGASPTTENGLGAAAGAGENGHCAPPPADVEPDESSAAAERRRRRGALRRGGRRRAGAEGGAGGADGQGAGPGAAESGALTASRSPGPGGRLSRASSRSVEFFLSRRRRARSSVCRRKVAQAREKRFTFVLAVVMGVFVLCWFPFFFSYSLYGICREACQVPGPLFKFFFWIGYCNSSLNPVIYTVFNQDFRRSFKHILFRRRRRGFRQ
As to the kind of experiment: Binding to cloned human α2C adrenergic receptor, [3H]rauwolscine.

In a further assay the target is T3, human Y2 receptor (Homo sapiens, UniProt P49146).
T3 sequence (P49146 1-381): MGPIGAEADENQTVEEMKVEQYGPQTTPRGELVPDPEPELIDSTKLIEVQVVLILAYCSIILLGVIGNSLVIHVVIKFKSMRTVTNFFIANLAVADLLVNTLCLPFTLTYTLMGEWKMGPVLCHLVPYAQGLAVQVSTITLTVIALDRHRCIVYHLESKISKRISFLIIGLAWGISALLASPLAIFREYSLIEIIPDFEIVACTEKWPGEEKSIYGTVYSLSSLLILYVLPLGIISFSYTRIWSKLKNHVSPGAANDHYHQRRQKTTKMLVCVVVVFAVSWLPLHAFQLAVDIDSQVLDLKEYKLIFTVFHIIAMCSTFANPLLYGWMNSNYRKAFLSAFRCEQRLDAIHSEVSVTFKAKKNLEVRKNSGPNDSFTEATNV
In kind it is binding. Particulars: Table 14.

Another assay has as its target human Y4 receptor (Homo sapiens, UniProt P50391). The class given is binding. Particulars: Table 14.
Another assay concerns the target T4, human Y1 receptor (Homo sapiens, UniProt P25929).
T4 sequence (P25929 1-384): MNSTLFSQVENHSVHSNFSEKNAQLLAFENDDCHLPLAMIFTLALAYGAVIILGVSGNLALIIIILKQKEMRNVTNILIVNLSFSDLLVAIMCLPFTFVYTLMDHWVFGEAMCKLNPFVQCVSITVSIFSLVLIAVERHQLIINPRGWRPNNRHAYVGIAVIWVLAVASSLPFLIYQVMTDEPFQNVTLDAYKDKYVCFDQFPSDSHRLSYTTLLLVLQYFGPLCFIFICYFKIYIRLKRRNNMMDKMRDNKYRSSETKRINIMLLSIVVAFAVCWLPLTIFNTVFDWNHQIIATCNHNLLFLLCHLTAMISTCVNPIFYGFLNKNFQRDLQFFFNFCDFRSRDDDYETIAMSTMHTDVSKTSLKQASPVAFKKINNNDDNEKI
Particulars: read-out: Binding Affinity (Ki (nM) vs. ^125I-PYY) Human Receptor Y1; Table 14.

[3] abbreviates: read-out: Binding Affinity (Ki (nM) vs. ^125I-PYY) Human Receptor Y2.
[4] abbreviates: read-out: Binding Affinity (Ki (nM) vs. ^125I-PYY) Human Receptor Y4.

Chain of human Y4 receptor (P50391 whole entry): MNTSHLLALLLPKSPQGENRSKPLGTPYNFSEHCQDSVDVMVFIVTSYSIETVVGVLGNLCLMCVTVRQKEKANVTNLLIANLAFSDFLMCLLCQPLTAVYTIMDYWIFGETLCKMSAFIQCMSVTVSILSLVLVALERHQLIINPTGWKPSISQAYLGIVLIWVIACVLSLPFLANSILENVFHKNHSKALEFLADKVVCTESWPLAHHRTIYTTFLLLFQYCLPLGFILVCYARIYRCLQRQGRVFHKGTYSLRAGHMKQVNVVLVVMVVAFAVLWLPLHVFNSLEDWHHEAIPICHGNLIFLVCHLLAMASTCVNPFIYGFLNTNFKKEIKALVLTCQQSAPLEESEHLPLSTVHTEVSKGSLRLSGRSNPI
Chain of human 5HT1E receptor (P28566 whole entry): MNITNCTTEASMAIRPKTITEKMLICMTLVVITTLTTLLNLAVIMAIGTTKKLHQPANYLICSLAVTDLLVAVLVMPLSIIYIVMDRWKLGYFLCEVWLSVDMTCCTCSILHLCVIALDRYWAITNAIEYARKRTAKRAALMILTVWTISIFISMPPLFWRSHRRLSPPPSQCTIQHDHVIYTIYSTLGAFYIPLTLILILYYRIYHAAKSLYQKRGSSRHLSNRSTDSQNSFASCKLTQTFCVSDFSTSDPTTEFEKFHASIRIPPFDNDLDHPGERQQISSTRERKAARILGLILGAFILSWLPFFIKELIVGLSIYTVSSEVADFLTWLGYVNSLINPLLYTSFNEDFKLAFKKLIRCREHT

`Cl.c1ccc(Nc2nc(Nc3ccccc3)c3ccccc3n2)cc1` [Compound 1, 2,4-Diphenylamino-quinazoline Hydrochloride]: the Ki on human 5HT1F receptor, on human 5HT1E receptor and on human 5HT1Dβ receptor was at least 5.01 µM each time. In assay [1], the “Two-hour food intake of food-deprived rats, Mean (%)” value (shortened to “Two-hour food intake … (%)”) came to 34%. Moreover, in [2], the “Food intake (g) mean ± S.E.M., NPY + compound” value (shortened to “Food intake … NPY + compound”) is reported as 4.6 ± 0.6 g.
On to `Nc1nc(NCCCCCCNS(=O)(=O)c2cccc3ccccc23)nc2ccccc12` [Compound 2, Naphthalene-1-sulfonic Acid [6-(4-amino-quinazolin-2-ylamino)-hexyl]-amide], for which the “Two-hour food intake … (%)” value in assay [1] is on record as 42%.
As for `Cl.Nc1nc(NC[C@H]2CC[C@H](CNS(=O)(=O)c3cccc4ccccc34)CC2)nc2ccccc12` [Compound 5, trans-Naphthalene-1-sulfonic Acid {4-[(4-amino-quinazolin-2-ylamino)-methyl]-cyclohexylmethyl}-amide Hydrochloride], the Ki at human 5HT1F receptor and on human 5HT1E receptor was at least 5.01 µM throughout. In addition, in [2], the “Food intake … NPY + compound” value is reported as 4.1 ± 0.4 g.
`c1ccc(Nc2nc(Nc3ccc(N4CCCCC4)cc3)nc3ccccc23)cc1` [Compound 6, 2-[4-(Piperidin-1-yl)-phenylaminol-4-phenylamino-quinazoline Dihydrochloride]: the Ki at human 5HT1F receptor, at human 5HT1E receptor, on human 5HT1Dβ receptor and at human 5HT1Dα receptor was at least 5.01 µM throughout. Moreover, the “Receptor (pKi) α2c” value at human α2C receptor was 6.35. The “Two-hour food intake … (%)” value in assay [1] amounted to 38%.
With `CC(=O)O[C@H]1CC[C@H](Nc2nc(Nc3ccccc3)c3ccccc3n2)CC1` [Compound 7, trans-2-(4-Acetoxy-cvclohexylamino)-4-phenylamino-quinazoline Hydrochloride], the Ki at human 5HT1F receptor, on human 5HT1E receptor and on human 5HT1Dβ receptor was at least 5.01 µM in each case.
As to `COc1ccc(Nc2nc(Nc3ccccc3)c3cccc(OC)c3n2)cc1.Cl` [Compound 9, 8-Methoxy-2-(4-methoxy-phenylamino)-4-phenylamino-quinazoline Hydrochloride], the Ki at human 5HT1F receptor, at human 5HT1E receptor, at human 5HT1Dβ receptor and on human 5HT1Dα receptor was at least 5.01 µM in each case. In addition, the “Two-hour food intake … (%)” value in assay [1] is 40%.
For `CNS(=O)(=O)Cc1ccc(Nc2nc(Nc3ccccc3)c3cc(OC)ccc3n2)cc1.Cl` [Compound 10, N-Methyl-[4-(6-methoxy-4-phenylamino-quinazolin-2-ylamino)-phenyl]-methanesulfonamide Hydrochloride], the Ki on human 5HT1F receptor, on human 5HT1E receptor, at human 5HT1Dβ receptor and at human 5HT1Dα receptor was at least 5.01 µM in each case. Also, in [1], the “Two-hour food intake … (%)” value amounted to 74%.
Consider `CNS(=O)(=O)Cc1ccc(Nc2nc(Nc3ccccc3)c3ccccc3n2)cc1.Cl` [Compound 11, N-Methyl-[4-(4-phenylamino-quinazolin-2-ylamino)-phenyl]-methanesulfonamide Hydrochloride], for which the Ki on human 5HT1F receptor, on human 5HT1E receptor, at human 5HT1Dβ receptor and on human 5HT1Dα receptor was at least 5.01 µM in each case. Also, the “Two-hour food intake … (%)” value in assay [1] came to 15%.
On to `Cl.O=S(=O)(NC[C@H]1CC[C@H](CNCC2CCc3ccccc3C2)CC1)c1ccc2ccccc2c1` (some centres unmarked) [Compound 17], for which, in assay [1], the “Two-hour food intake … (%)” value is reported as 27%. In assay [2], the “Food intake … NPY + compound” value was 3.8 ± 0.4 g.
On to `Cl.O=S(=O)(NCC1CCC(CNCc2ccc3ccccc3c2)CC1)c1ccccc1C(F)(F)F` (centres unmarked) [Compound 21], for which the Ki on human Y2 receptor (setting [3]) turned out to be 1610 nM; at human Y4 receptor (setting [4]), 18500 nM; on human Y1 receptor, 13000 nM. In addition, in assay [1], the “Two-hour food intake … (%)” value is given as 80%.
For `Cl.O=S(=O)(NCC1CCC(CNCc2cccc3ccccc23)CC1)c1ccccc1C(F)(F)F` (centres unmarked) [Compound 23] the same measures were 617 nM, 21500 nM, 14500 nM and 58%.
On to `O=S(=O)(NC[C@H]1CC[C@H](CNC(CO)Cc2ccc(Cl)cc2)CC1)c1cccc2ccccc12` (some centres unmarked) [Compound 25], for which the Ki at human 5HT1F receptor was at least 5.01 µM; at human 5HT1E receptor, at least 5.01 µM; at human Y2 receptor it was 851 nM; on human Y4 receptor it was 13100 nM. In assay [1], the “Two-hour food intake … (%)” value is 32%.
On to `Cl.Cl.O=[N+]([O-])c1ccccc1S(=O)(=O)NCC1CCC(CNCc2ccc3ccccc3n2)CC1` (centres unmarked) [Compound 26], for which the Ki on human Y2 receptor (setting [3]) worked out at 58200 nM; at human Y4 receptor (setting [4]), 19300 nM; on human Y1 receptor, 23700 nM. In addition, the “Two-hour food intake … (%)” value in [1] is recorded as 73%.
With “NPY: neuropeptide Y, species not given (Table 1, cited text); in Table 15 300 pmole porcine NPY i.c.v. [reference compound]”, the “Food intake (g) mean ± S.E.M., NPY” value in assay [2] (300 pmole NPY i.c.v. alone, cumulative intake 4 hours after NPY, one value per compound experiment) is 7.4 ± 0.5 g and 6.8 ± 1.0 g and 5.8 ± 0.5 g and 4.9 ± 0.4 g.

(Values after patent US6818445B2 (Synaptic Pharmaceutical Corporation, priority 1994, dated 2004).)
